# Earlier results as cited in patent US7064108B2 (Merck & Co., Inc., priority 2002, dated 2006).
# Legend:
# head lice [1] = conditions: after a single topical application
# [2] = tested on: mammalian ligand-gated chloride channels
# [3] = amicrofilaremic population in mass treatment programs
# [4] = tested on: head lice (Pediculosis capitis); conditions: single oral 200 ug/kg dose, 26 patients
# Onchocerca volvulus [5] = conditions: after one month; single oral dose approximately 150 ug/kg
# head lice [6] = conditions: single oral dose of 100–200 ug/kg
# Onchocerca volvulus [7] = tested on: Onchocerca volvulus
# [8] = tested on: glutamate-gated chloride ion channels; conditions: invertebrate nerve and muscle cells
Compound,effect on head lice (head lice [1]),affinity for mammalian ligand-gated chloride channels [2],overall incidences of adverse experiences [3],plasma half-life (in vivo),effect against head lice [4],dermal microfilarial density (Onchocerca volvulus [5]),effect on head lice infestation (head lice [6]),activity against adult form (Onchocerca volvulus [7]; adult form of Onchocerca volvulus),activity against tissue microfilariae (Onchocerca volvulus [7]; tissue microfilariae of Onchocerca volvulus),affinity for glutamate-gated chloride ion channels [8],plasma half life (metabolite of ivermectin)
Ivermectin,absolute curative effect,low affinity,1%,15 to 20 h,effectiveness,near zero,"significant, but not absolute, effect",not against the adult form,active,high affinity,
Nc1nc2cccc(-c3ccc(CN4CCS(=O)(=O)CC4)cc3)n2n1 [metabolite],,,,,,,,,,,about 3 days
